Here are results for 24 compounds from patent US20060058268A1, “Compounds and methods for treating diabetic vascular diseases” (priority 2004, published 2006).

Structures can show the parent of a compound that is named as a salt. Some results are limits rather than exact numbers.

The subject of the first test is VCAM-1. Nature of the test: VCAM-1 assay with ELISA readout (Examples 5-6). In kind it is cell-based. The settings on record: 16 h, TNF added with compound, incubated overnight (approximately 16 hours). As for the experimental part:
Two to four confluent P150 plates are trypsinized and the cells transferred to a 50 mL conical centrifuge tube. The cells are pelleted, resuspended, and counted using the trypan blue exclusion method.
Cells are resuspended at a concentration of 36,000 cells/mL and 1 mL is aliquoted per well.
Cells are split into 24 well tissue culture plates. The cells in each well should be approximately 90-95% confluent by the following day. Cells should not be older than passage 8.
Compounds are initially screened at 50 μM and 10 μM. A 50 mM stock solution for each compound is prepared in culture medium. The stock solution is diluted to 5 mM and 1 mM. When 10 μL of the 5 mM solution is added to the well (1 mL medium/well), the final concentration will be 50 μM. Adding 10 μL of the 1 mM solution to the well will give a final concentration of 10 μM.
Compounds which will not go into solution in culture medium are resuspended in DMSO at a concentration of 25 mM. The stock solution is then diluted to the final concentration in culture medium. The old medium is aspirated and 1 mL of the new medium with the compound is added. For example, if the final concentration is 50 µM, the 2 μL of the 25 mM stock is added per mL of culture medium. The […] solution is diluted for lower concentrations.
The compounds are added to the plate (each compound is done in duplicate). One plate is done for VCAM expression and one plate is done for ICAM expression.
Immediately after the compounds are added, TNF is added to each well. 100 units/mL TNF is usually added to each well. Since each lot of TNF varies in the number of units, each new lot is titrated to determine the optimum concentration. Therefore this concentration will change. If 100 units/mL is being used, dilute the TNF to 10 units/μL and add 10 μL to each well.
The plates are incubated at 37° C., 5% CO2 overnight (approximately 16 hours). The next day the plates are checked under the microscope to see if there are any visual signs of toxicity. Records are made of any cell death, debris, or morphology changes, as well as insoluble compounds (particulate or turbity).
In order to assess MCP-1, the media (500 μL) is saved and frozen at −70° C. Wash cells once with roughly 1 ml/well of Hanks Balance Salt Solution (HBSS) or PBS. Gently empty the wash solution and then tap the plate onto paper towels. Add either 250 μL/well of HBSS+5% FCCS to the plank (no primary antibody wells) or 250 μL/well of primary antibody diluted in HBSS+5% FCS. Incubate for 30 minutes at 37° C. Wash the wells twice with 0.5 mL/well HBSS or PBS and gently tap the plates onto paper towels after the last wash. Add 250 μL/well of HRP-conjugated second antibody diluted in HBSS+5% FCS to every well including the blank wells (no primary antibody). Incubate at 37° C. for 30 minutes. Wash the wells four times with 0.5 mL/well HBSS or PBS and gently tap the plates onto paper towels after the last wash. Add 250 μL/well of substrate solution. Incubate at room temperature in the dark until there is adequate color development (blue). Note the length of time incubation was performed (typically 15-30 minutes). Add 75 μL/well stopper solution (8N sulfuric acid), and read at 450 nm.
In general terms: An ELISA detects its analyte on a solid surface through an enzyme-linked reagent.
What is called IC50 is the concentration that gives 50% inhibition. On to `CC(C)(Sc1cc(C(C)(C)C)c(O)c(C(C)(C)C)c1)Sc1cc(C(C)(C)C)c(OCCCC(=O)O)c(C(C)(C)C)c1` [Butanoic acid, 4-[4-[[1-[[3,5-bis(1,1-dimethylethyl)-4-hydroxyphenyl]thio]-1-methylethyl]thio]-2,6-bis(1,1-dimethylethyl)phenoxy]-], for which the IC50 is 11 µM. For the compound `CC(C)(Sc1cc(C(C)(C)C)c(O)c(C(C)(C)C)c1)Sc1cc(C(C)(C)C)c(OC[C@H]2OC(O)[C@H](O)[C@@H](O)[C@@H]2O)c(C(C)(C)C)c1` (stereo partly drawn) [D-Glucopyranose, 6-O-[4-[[1-[[3,5-bis(1,1-dimethylethyl)-4-hydroxyphenyl]thio]-1-methylethyl]thio]-2,6-bis(1,1-dimethylethyl)phenyl]-], the concentration for half-maximal inhibition (IC50) was 10 µM. Same read-out and setting: to `CC(C)(Sc1cc(C(C)(C)C)c(O)c(C(C)(C)C)c1)Sc1cc(C(C)(C)C)c(OC(=O)CN)c(C(C)(C)C)c1` [Glycine, 4-[[1-[[3,5-bis(1,1-dimethylethyl)-4-hydroxyphenyl]thio]-1-methylethyl]thio]-2,6-bis(1,1-dimethylethyl)phenyl ester] belongs 5 µM; to `CC(C)(Sc1cc(C(C)(C)C)c(O)c(C(C)(C)C)c1)Sc1cc(C(C)(C)C)c(OCC(=O)O)c(C(C)(C)C)c1` [Acetic acid, [4-[[1-[[3,5-bis(1,1-dimethylethyl)-4-hydroxyphenyl]thio]-1-methylethyl]thio]2,6-bis(1,1-dimethylethyl)phenoxy]-], 10 µM. For the compound `CC(C)(Sc1cc(C(C)(C)C)c(O)c(C(C)(C)C)c1)Sc1cc(C(C)(C)C)c(OCCCCN)c(C(C)(C)C)c1` [Phenol, 4-[[1-[[4-(4-aminobutoxy)-3,5-bis(1,1-dimethylethyl)phenyl]thio]-1-methylethyl]thio]2,6-bis(1,1-dimethylethyl)-], the IC50 is 8 µM. As for `CC(C)(Sc1cc(C(C)(C)C)c(O)c(C(C)(C)C)c1)Sc1cc(C(C)(C)C)c(OCC(O)CO)c(C(C)(C)C)c1` (stereo not shown) [1,2-Propanediol, 3-[4-[[1-[[3,5-bis(1,1-dimethylethyl)-4-hydroxyphenyl]thio]-1-methylethyl]thio]-2,6-bis(1,1-dimethylethyl)phenoxy]-], the IC50 is 30 µM. For `CC(C)(Sc1ccc(OCCCC(=O)O)cc1)Sc1cc(C(C)(C)C)c(O)c(C(C)(C)C)c1` [Butanoic acid, 4-[4-[[1-[[3,5-bis(1,1-dimethylethyl)-4-hydroxyphenyl]thio]-1-methylethyl]thio]phenoxy]-], the half-inhibitory concentration (IC50) stood at 19 µM. Take `CC(C)(Sc1cc(C(C)(C)C)c(O)c(C(C)(C)C)c1)Sc1cc(C(C)(C)C)c(OCC(O)CNCC(=O)O)c(C(C)(C)C)c1` (stereo not shown) [Glycine, N-[3-[4-[[1-[[3,5-bis(1,1-dimethylethyl)-4-hydroxyphenyl]thio]-1-methylethyl]thio]-2,6-bis(1,1-dimethylethyl)phenoxy]2-hydroxypropyl]-]: the IC50 was 16 µM. The same measure, in the same setting: to `CC(C)(Sc1ccc(OCCCCN)cc1)Sc1cc(C(C)(C)C)c(O)c(C(C)(C)C)c1` [Phenol, 4-[[1-[[4-(4-aminobutoxy)phenyl]thio]-1-methylethyl]thio]-2,6-bis(1,1-dimethylethyl)-] belongs 5 µM; to `C=CC(=O)OCCCCOc1c(C(C)(C)C)cc(SC(C)(C)Sc2cc(C(C)(C)C)c(O)c(C(C)(C)C)c2)cc1C(C)(C)C` [2-Propenoic acid, 4-[4-[[1-[[3,5-bis(1,1-dimethylethyl)-4-hydroxyphenyl]thio]-1-methylethyl]thio]-2,6-bis(1,1-dimethylethyl)phenoxy]butyl ester], 75 µM. As for `CC(C)(Sc1cc(C(C)(C)C)c(O)c(C(C)(C)C)c1)Sc1cc(C(C)(C)C)c(OC[C@@H](O)[C@@H](O)[C@H](O)[C@@H](O)CO)c(C(C)(C)C)c1` [D-Glucitol, 6-O-[4-[[1-[[3,5-bis(1,1-dimethylethyl)-4-hydroxyphenyl]thio]-1-methylethyl]thio]-2,6-bis(1,1-dimethylethyl)phenyl]-], the half-inhibitory concentration (IC50) was determined as 15 µM. `CC(C)(Sc1cc(C(C)(C)C)c(O)c(C(C)(C)C)c1)Sc1cc(C(C)(C)C)c(OC=CCO)c(C(C)(C)C)c1` [Phenol, 4-[[1-[[3,5-bis(1,1-dimethylethyl)-4-[[3-hydroxy-1-propenyl)oxy]phenyl]thio]-1-methylethyl]thio]-2,6-bis(1,1-dimethylethyl)-]: the IC50 came to 55 µM. On to `CC(C)(Sc1cc(C(C)(C)C)c(O)c(C(C)(C)C)c1)Sc1cc(C(C)(C)C)c(O/C=C/C(=O)O)c(C(C)(C)C)c1` [2-Propenoic acid, 3-[4-[[1-[[3,5-bis(1,1-dimethylethyl)-4-hydroxyphenyl]thio]-1-methylethyl]thio]-2,6-bis(1,1-dimethylethyl)phenoxy]-, (E)-], for which the IC50 came to 30 µM. As to `CC(C)(CO)CC(=O)Oc1c(C(C)(C)C)cc(SC(C)(C)Sc2cc(C(C)(C)C)c(O)c(C(C)(C)C)c2)cc1C(C)(C)C` [Butanoic acid, 4-hydroxy-3,3-dimethyl-, 4-[[1-[[3,5-bis(1,1-dimethylethyl)-4-hydroxyphenyl]thio]-1-methylethyl]thio]-2,6-bis(1,1-dimethylethyl)phenyl ester], the 50% inhibitory concentration (IC50) turned out to be 110 µM.

Still in this test, the particulars now being: TNF added with compound, incubated overnight (approximately 16 hours).
Consider `CN(C)Cc1ccc(CSc2cc(C(C)(C)C)c(O)c(C(C)(C)C)c2)o1` [2,6-di-tert-butyl-4-thio(5′-methyl-2′-((dimethylamino)methyl)furan)phenol], for which the IC50 turned out to be 10 µM. On the same count and under the same terms, with `Cc1ccc(CSc2cc(C(C)(C)C)c(O)c(C(C)(C)C)c2)cc1` [2,6-di-tert-butyl-4-thio(4′-methylbenzyl)phenol] the figure was 75 µM.

Take `CN(C)c1ccc(CCOc2c(C(C)(C)C)cc(SC(C)(C)Sc3cc(C(C)(C)C)c(OCCc4ccc(N(C)C)cc4)c(C(C)(C)C)c3)cc2C(C)(C)C)cc1` [Benzenamine, 4,4′-[(1-methylethylidene)bis [thio[2,6-bis(1,1-dimethylethyl)-4,1-phenylene]oxy-2,1-ethanediyl]]bis[N,N-dimethyl-]: the 50% inhibitory concentration (IC50) was > 50 µM. As for “Oxiranemethanol, α-[[[3-[[4-[[1-[[3,5-bis(1,1-dimethylethyl)-4-hydroxyphenyl]thio]-1-methylethyl]thio]-2,6-bis(1,1-dimethylethyl)phenoxy]methyl]oxiranyl]methoxy]methyl]-”, the IC50 is 60 µM.

As to `CC(C)(Sc1cc(C(C)(C)C)c(O)c(C(C)(C)C)c1)Sc1cc(C(C)(C)C)c(OCCCCN)c(C(C)(C)C)c1` [Phenol, 4-[[1-[[4-(4-aminobutoxy)-3,5-bis(1,1-dimethylethyl)phenyl]thio]-1-methylethyl]thio]2,6-bis(1,1-dimethylethyl)-], the IC50 was determined as 9 µM. `CC(C)(Sc1cc(C(C)(C)C)c(O)c(C(C)(C)C)c1)Sc1cc(C(C)(C)C)c(OC(=O)CCC(=O)O)c(C(C)(C)C)c1` [Butanedioic acid, mono [4-[[1-[[3,5-bis(1,1-dimethylethyl)-4-hydroxyphenyl]thio]-1-methylethyl]thio]2,6-bis(1,1-dimethylethyl)phenyl] ester]: the IC50 stood at 5.6 µM. For `CC(C)(Sc1cc(C(C)(C)C)c(O)c(C(C)(C)C)c1)Sc1cc(C(C)(C)C)c(OCC(O)C2CO2)c(C(C)(C)C)c1` (stereo not drawn) [Oxiranemethanol, α-[[4-[[1-[[3,5-bis(1,1-dimethylethyl)-4-hydroxyphenyl]thio]-1-methylethyl]thio]-2,6-bis(1,1-dimethylethyl)phenoxy]methyl]-], the half-inhibitory concentration (IC50) was found to be 45 µM. Take `CC(C)(Sc1cc(C(C)(C)C)c(OC(=O)CN)c(C(C)(C)C)c1)Sc1cc(C(C)(C)C)c(OC(=O)CN)c(C(C)(C)C)c1` [Glycine, (1-methylethylidene)bis[bis[thio-2,6-bis(1,1-dimethylthyl)-4,1-phenylene]]ester, dihydrochloride]: the IC50 is > 50 µM.

In the case of “2,6-di-tert-butyl-4-thio(3′,5′-ditert-butyl,4′-hydroxy butanedioic acid ester)phenol”, the half-maximal inhibitory concentration (IC50) was found to be 6 µM.

The test is the same for the next values; noted with them: at 20 μM.
Broadly, the inhibition is the change of the read-out against control, counted positive when it falls. Low readings indicate a response near the control, high ones a response far below the control. `Cc1cc(SC(C)(C)Sc2cc(C(C)(C)C)c(O)c(C(C)(C)C)c2)cc(C)c1OC(=O)CN` [Glycine, 4-[[1-[[3,5-bis(1,1-dimethylethyl)-4-hydroxyphenyl]thio]-1-methylethyl]thio]-2,6-dimethylphenyl ester] registered an inhibition at 20 µM of 10%.

The same test, now with this note: at 50 μM.
As for `CC(C)(C)c1cc(SCCCS(=O)(=O)O)cc(C(C)(C)C)c1O` [2,6-di-tert-butyl-4-thio(3′-propanesulfonic acid)phenol], the “VCAM-1 inhibition at [μM]” value was found to be 25% at 50.
